The compounds below were run against FAS (Homo sapiens, UniProt P49327) (assay: FAS assay (Assay #1 residual NADPH detection or Assay #2 CoA detection with CPM dye)). Details: inhibition of FAS; measured by one of two assays; one experiment or average of multiple experiments.
Sequence of FAS (P49327 whole entry): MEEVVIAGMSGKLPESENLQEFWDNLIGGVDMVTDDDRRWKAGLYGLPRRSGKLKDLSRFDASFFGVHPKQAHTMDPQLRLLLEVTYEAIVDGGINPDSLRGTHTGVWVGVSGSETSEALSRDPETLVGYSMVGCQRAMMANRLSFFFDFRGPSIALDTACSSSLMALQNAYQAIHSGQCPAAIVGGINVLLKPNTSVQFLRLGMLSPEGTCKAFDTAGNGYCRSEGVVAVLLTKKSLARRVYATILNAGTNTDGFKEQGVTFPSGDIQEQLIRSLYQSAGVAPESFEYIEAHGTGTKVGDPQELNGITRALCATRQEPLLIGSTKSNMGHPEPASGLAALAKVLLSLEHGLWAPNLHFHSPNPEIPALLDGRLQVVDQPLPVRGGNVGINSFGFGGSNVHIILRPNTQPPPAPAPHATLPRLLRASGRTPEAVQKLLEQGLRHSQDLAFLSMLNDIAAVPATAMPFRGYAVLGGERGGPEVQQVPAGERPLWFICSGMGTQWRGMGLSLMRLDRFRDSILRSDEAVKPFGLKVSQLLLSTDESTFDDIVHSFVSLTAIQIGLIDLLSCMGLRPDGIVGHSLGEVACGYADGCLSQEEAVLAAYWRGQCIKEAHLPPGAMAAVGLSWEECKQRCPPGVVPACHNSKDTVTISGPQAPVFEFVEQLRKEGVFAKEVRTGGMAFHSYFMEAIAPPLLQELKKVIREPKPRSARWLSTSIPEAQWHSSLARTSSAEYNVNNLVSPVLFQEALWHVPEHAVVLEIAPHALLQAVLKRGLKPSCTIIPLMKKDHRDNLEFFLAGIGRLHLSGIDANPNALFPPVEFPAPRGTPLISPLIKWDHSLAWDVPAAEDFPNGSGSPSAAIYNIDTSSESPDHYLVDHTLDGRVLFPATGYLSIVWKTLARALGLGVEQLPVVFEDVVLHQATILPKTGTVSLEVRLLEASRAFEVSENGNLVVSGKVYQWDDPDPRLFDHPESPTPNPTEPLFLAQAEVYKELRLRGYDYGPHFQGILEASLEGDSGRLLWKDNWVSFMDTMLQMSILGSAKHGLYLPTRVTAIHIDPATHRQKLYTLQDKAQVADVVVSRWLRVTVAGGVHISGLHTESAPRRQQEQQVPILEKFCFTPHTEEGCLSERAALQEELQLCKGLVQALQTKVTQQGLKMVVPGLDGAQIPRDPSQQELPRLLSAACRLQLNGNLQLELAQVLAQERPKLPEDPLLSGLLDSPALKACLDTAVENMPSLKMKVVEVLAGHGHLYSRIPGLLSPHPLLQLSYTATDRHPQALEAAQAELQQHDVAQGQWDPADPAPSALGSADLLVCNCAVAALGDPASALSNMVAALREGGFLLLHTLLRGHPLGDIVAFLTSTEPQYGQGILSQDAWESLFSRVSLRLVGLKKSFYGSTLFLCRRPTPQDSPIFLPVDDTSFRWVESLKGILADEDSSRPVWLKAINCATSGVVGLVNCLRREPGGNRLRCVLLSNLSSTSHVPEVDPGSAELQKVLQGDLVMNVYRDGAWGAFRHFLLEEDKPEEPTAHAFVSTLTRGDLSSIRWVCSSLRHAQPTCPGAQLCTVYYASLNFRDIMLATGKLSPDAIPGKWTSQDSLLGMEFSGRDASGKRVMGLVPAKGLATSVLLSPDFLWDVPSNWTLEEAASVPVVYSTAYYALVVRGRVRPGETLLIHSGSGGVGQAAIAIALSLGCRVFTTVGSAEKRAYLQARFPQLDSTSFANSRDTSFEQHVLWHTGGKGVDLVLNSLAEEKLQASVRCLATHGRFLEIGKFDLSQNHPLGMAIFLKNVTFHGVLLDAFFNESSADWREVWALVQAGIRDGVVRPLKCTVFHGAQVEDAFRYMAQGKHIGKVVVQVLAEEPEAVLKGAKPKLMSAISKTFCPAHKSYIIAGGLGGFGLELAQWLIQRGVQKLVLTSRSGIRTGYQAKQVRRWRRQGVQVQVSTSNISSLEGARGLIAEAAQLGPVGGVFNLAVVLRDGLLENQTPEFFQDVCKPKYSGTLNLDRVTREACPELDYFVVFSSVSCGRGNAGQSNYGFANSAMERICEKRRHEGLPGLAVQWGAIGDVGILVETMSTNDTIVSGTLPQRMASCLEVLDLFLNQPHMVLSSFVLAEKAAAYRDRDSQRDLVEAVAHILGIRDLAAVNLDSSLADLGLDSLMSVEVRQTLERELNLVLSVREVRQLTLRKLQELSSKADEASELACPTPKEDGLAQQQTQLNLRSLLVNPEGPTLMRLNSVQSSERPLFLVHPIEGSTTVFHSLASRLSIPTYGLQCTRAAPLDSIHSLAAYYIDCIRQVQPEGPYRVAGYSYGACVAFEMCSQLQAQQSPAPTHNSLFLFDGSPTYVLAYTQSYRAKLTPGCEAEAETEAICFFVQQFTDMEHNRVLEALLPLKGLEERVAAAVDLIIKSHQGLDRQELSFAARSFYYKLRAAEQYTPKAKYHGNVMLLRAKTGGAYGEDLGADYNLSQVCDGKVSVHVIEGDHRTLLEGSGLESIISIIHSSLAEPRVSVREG
Type: biochemical
Procedure: FAS activity was measured through one of the two following assays.
Inhibition of FAS activity can be measured based on the detection of residual NADPH substrate after the FAS assay is quenched. This assay is run as a 10 μL endpoint assay in 384-well format, where the reaction contains 20 μM malonyl-CoA, 2 μM acetyl-CoA, 30 μM NADPH and 40 nM FAS in 50 mM sodium phosphate, pH 7.0. The assay is run by sequentially dispensing 5 μl of a malonyl-CoA solution, then enzyme solution (containing the acetyl-CoA, and NADPH) into a black, low volume assay plate (Greiner 784076) pre-dispensed with 100 nL compound solutions in DMSO. The reaction is incubated at ambient temperature for 60 minutes, then quenched with 5 μL of a developing solution composed of 90 μM resazurin, 0.3 IU/ml diaphorase in 50 mM sodium phosphate, pH 7.0. The developed reaction is read on a Molecular Devices Analyst or Acquest (or equivalent) plate reader using a 530 nm excitation wavelength filter, a 580 nm emission filter, and 561 nm dichroic filter. The test compounds are prepared in neat DMSO at a concentration of 10 mM. For inhibition curves, compounds are diluted using a three fold serial dilution and tested at 11 concentrations (e.g. 25 μM-0.42 nM). Curves are analysed using ActivityBase and XLfit, and results are expressed as pIC50 values.
Inhibition of FAS can also be quantified based on the detection of the CoA products with a thio-reactive coumarin dye. This assay is run as a 10 μL endpoint assay in 384-well format, where the reaction contains 20 μM malonyl-CoA, 20 μM acetyl-CoA, 40 μM NADPH and 2 nM FAS in 50 mM sodium phosphate, pH 7.0, and 0.04% Tween-20. The assay is run by adding 5 μL enzyme solution to a black, low volume assay plate (Greiner 784076) pre-dispensed with 100 nl compound solutions in DMSO. After 30 minutes, 5 μL substrate is added, and the reaction incubated at ambient temperature for an additional 60 minutes. The reaction is then quenched with 10 μL of 6M guanidine-HCl containing 50 μM CPM (7-diethylamino-3-(4′-maleimidylphenyl)-4-methylcoumarin (CPM; thio-reactive dye), and incubated for 30 minutes. The plate is read on an Envision (PerkinElmer) or equivalent plate reader using a 380 nm excitation wavelength filter, and a 486 nm emission filter. Data fitting and compound preparations are done as described above.
`O=C(C1CC1)N1CC[C@@H](Cn2c(-c3ccc(-c4cccc5ncccc45)cc3)n[nH]c2=O)C1` [Example 71, 4-{[(3R)-1-(cyclopropylcarbonyl)-3-pyrrolidinyl]methyl}-5-[4-(5-quinolinyl)phenyl]-2,4-dihydro-3H-1,2,4-triazol-3-one] gave an IC50 of 20 nM. Work on `O=C(C1CC1)N1CC[C@@H](Cn2c(-c3ccc(-c4ccn5ccnc5c4)cc3)n[nH]c2=O)C1` [Example 79, 4-{[(3R)-1-(cyclopropylcarbonyl)-3-pyrrolidinyl]methyl}-5-(4-imidazo[1,2-a]pyridin-7-ylphenyl)-2,4-dihydro-3H-1,2,4-triazol-3-one] yielded an IC50 of 100 nM. `O=C(C1CC1)N1CC[C@@H](Cn2c(-c3ccc(-c4ccc(Cl)cc4F)cc3)n[nH]c2=O)C1` [Example 105] gave an IC50 of 50 nM. `O=C(C1CC1)N1CC[C@@H](Cn2c(-c3ccc(-c4ccc5cc[nH]c5c4)cc3)n[nH]c2=O)C1` [Example 21, 4-{[(3R)-1-(cyclopropylcarbonyl)-3-pyrrolidinyl]methyl}-5-[4-(1H-indol-6-yl)phenyl]-2,4-dihydro-3H-1,2,4-triazol-3-one] was tested, and the IC50 was 4 nM. In the case of `O=C(C1CC1)N1CC[C@@H](Cn2c(-c3ccc(-c4ccc5cc[nH]c5c4)c(F)c3)n[nH]c2=O)C1` [Example 4, 4-{[(3R)-1-(cyclopropylcarbonyl)-3-pyrrolidinyl]methyl}-5-[3-fluoro-4-(1H-indol-6-yl)phenyl]-2,4-dihydro-3H-1,2,4-triazol-3-one], the IC50 is reported as 25 nM. `CC(C)C(=O)N1CC[C@@H](Cn2c(-c3ccc(-c4ccc5occc5c4)cc3)n[nH]c2=O)C1` [Example 91, 5-[4-(1-benzofuran-5-yl)phenyl]-4-{[(3R)-1-(2-methylpropanoyl)-3-pyrrolidinyl]methyl}-2,4-dihydro-3H-1,2,4-triazol-3-one] was tested, and the IC50 was 16 nM. `CN(C)S(=O)(=O)Nc1cccc(-c2ccc(-c3n[nH]c(=O)n3C[C@@H]3CCN(C(=O)C4CC4)C3)cc2)c1` [Example 49, N′-[4′-(4-{[(3R)-1-(cyclopropylcarbonyl)-3-pyrrolidinyl]methyl}-5-oxo-4,5-dihydro-1H-1,2,4-triazol-3-yl)-3-biphenylyl]-N,N-dimethylsulfamide] was tested, and the IC50 was 40 nM. Compound `O=C(C1CC1)N1CC[C@@H](Cn2c(-c3ccc(-c4ccc(F)nc4)cc3)n[nH]c2=O)C1` [Example 58, 4-{[(3R)-1-(cyclopropylcarbonyl)-3-pyrrolidinyl]methyl}-5-[4-(6-fluoro-3-pyridinyl)phenyl]-2,4-dihydro-3H-1,2,4-triazol-3-one] has an IC50 of 2000 nM. `COc1ccc(-c2ccc(-c3nn(C)c(=O)n3C[C@@H]3CCN(C(=O)C4CC4)C3)cc2)c(Cl)c1` [Example 35, 5-[2′-chloro-4′-(methyloxy)-4-biphenylyl]-4-{[(3R)-1-(cyclopropylcarbonyl)-3-pyrrolidinyl]methyl}-2-methyl-2,4-dihydro-3H-1,2,4-triazol-3-one] showed an IC50 of 79 nM. `CN(C)C(=O)N1CC[C@@H](Cn2c(-c3ccc(-c4ccc5occc5c4)cc3)n[nH]c2=O)C1` [Example 92, (3R)-3-({3-[4-(1-benzofuran-5-yl)phenyl]-5-oxo-1,5-dihydro-4H-1,2,4-triazol-4-yl}methyl)-N,N-dimethyl-1-pyrrolidinecarboxamide] gave an IC50 of 25 nM. `Cn1nc(-c2ccc(-c3ccc4occc4c3)c(F)c2)n(C[C@@H]2CCN(C(=O)C3CC3)C2)c1=O` [Example 2, 5-[4-(1-benzofuran-5-yl)-3-fluorophenyl]-4-{[(3R)-1-(cyclopropylcarbonyl)-3-pyrrolidinyl]methyl}-2-methyl-2,4-dihydro-3H-1,2,4-triazol-3-one] gave an IC50 of 158 nM. Compound `NC(=O)Nc1cccc(-c2ccc(-c3n[nH]c(=O)n3C[C@@H]3CCN(C(=O)C4CC4)C3)cc2)c1` [Example 103, N-[4′-(4-{[(3R)-1-(cyclopropylcarbonyl)-3-pyrrolidinyl]methyl}-5-oxo-4,5-dihydro-1H-1,2,4-triazol-3-yl)-3-biphenylyl]urea] has an IC50 of 316 nM. `O=C(C1CC1)N1CC[C@@H](Cn2c(-c3ccc(-c4ccc(F)cc4)cc3Cl)n[nH]c2=O)C1` [Example 20, 5-(3-chloro-4′-fluoro-4-biphenylyl)-4-{[(3R)-1-(cyclopropylcarbonyl)-3-pyrrolidinyl]methyl}-2,4-dihydro-3H-1,2,4-triazol-3-one] showed an IC50 of 40 nM. In the case of `O=C(C1CC1)N1CC[C@@H](Cn2c(-c3ccc(-c4ccc(Cl)cc4)cc3F)n[nH]c2=O)C1` [Example 47, 5-(4′-chloro-3-fluoro-4-biphenylyl)-4-{[(3R)-1-(cyclopropylcarbonyl)-3-pyrrolidinyl]methyl}-2,4-dihydro-3H-1,2,4-triazol-3-one], the IC50 is reported as 16 nM. In the case of `O=C(C1CC1)N1CC[C@@H](Cn2c(-c3ccc(-c4cn5ccccc5n4)cc3)n[nH]c2=O)C1` [Example 78, 4-{[(3R)-1-(cyclopropylcarbonyl)-3-pyrrolidinyl]methyl}-5-(4-imidazo[1,2-a]pyridin-2-ylphenyl)-2,4-dihydro-3H-1,2,4-triazol-3-one], the IC50 is reported as 398 nM. `CC1(C(=O)N2CC[C@@H](Cn3c(-c4ccc(-c5ccc6occc6c5)cc4)n[nH]c3=O)C2)CC1` [Example 97, 5-[4-(1-benzofuran-5-yl)phenyl]-4-({(3R)-1-[(1-methylcyclopropyl)carbonyl]-3-pyrrolidinyl}methyl)-2,4-dihydro-3H-1,2,4-triazol-3-one] showed an IC50 of 4 nM. For `N#Cc1ccc(-c2ccc(-c3n[nH]c(=O)n3C[C@@H]3CCN(C(=O)C4CC4)C3)cc2)cc1` [Example 66, 4′-(4-{[(3R)-1-(cyclopropylcarbonyl)-3-pyrrolidinyl]methyl}-5-oxo-4,5-dihydro-1H-1,2,4-triazol-3-yl)-4-biphenylcarbonitrile], the IC50 was 79 nM. Work on `O=C(C1CC1)N1CC[C@@H](Cn2c(-c3ccc(-c4ccc(F)cc4)cc3)nn(Cc3ccccc3)c2=O)C1` [Example 42, 4-{[(3R)-1-(cyclopropylcarbonyl)-3-pyrrolidinyl]methyl}-5-(4′-fluoro-4-biphenylyl)-2-(phenylmethyl)-2,4-dihydro-3H-1,2,4-triazol-3-one] yielded an IC50 of 263 nM. In the case of `COc1ccc(-c2ccc(-c3n[nH]c(=S)n3C[C@@H]3CCN(C(=O)C4CC4)C3)cc2)c(Cl)c1` [Example 107, 5-[2′-chloro-4′-(methyloxy)-4-biphenylyl]-4-{[(3R)-1-(cyclopropylcarbonyl)-3-pyrrolidinyl]methyl}-2,4-dihydro-3H-1,2,4-triazole-3-thione], the IC50 is reported as 72 nM.
